Columns and labels:
Type in all cases: cell-based, ICR mice
[1] = tested on: bone marrow cells (BMM), TRAP-positive multinucleated osteoclasts; assay: RANKL-induced osteoclast differentiation of BMM, TRAP staining; conditions: Mus musculus, 96 h, RANKL and 30 ng/ml M-CSF, 4 days, TRAP-positive cells having 3 or more nuclei, read-out: IC50 (μM), multinucleated osteoclast formation
Text: ICR mice (6˜9 weeks old, male) were sacrificed by cervical dislocation, followed by immersion in 70% ethanol for sterilization. Dissection was made on the tibia skin to remove the muscle attached thereto. The tibia was excised by cutting the distal tibia and dislocating the patella. The tibia were then cut slightly at their opposite ends. A 25-gauge (G) syringe needle was inserted into the bone at one end and α-MEM (Minimum Essential Medium) was infused into the bone through the needle to collect bone marrow cells.
After centrifugation, a cell pellet was suspended in α-MEM and red blood cells in the suspension were removed with two volumes of Gey's solution. After centrifugation, the cell pellet was resuspended in α-MEM supplemented with 10% FBS.
After a primary culture of the bone marrow cells, the bone marrow cells were incubated overnight in 10 ng/ml M-CSF (macrophage colony-stimulating factor) and then for an additional three days in 30 ng/ml M-CSF. After Adhesive cells (BMM) were recovered, ng/ml RANKL and 30 ng/ml M-CSF or ng/ml RANKL, 30 ng/ml M-CSF in combination with various concentrations of the K11, K14, K17, K18, K19, or K22 compound were added to each well plated at a density of 1×10^5 cells/well and each well was incubated for 4 days. The incubated to cells were fixed for 10 min with 10% formalin and then re-fixed for 1 min with ethanol/acetone (1:1(v/v)). The cells were stained for TRAP (tartrate-resistant acid phosphatase). TRAP-positive cells having 3 or more nuclei were evaluated as multinucleated osteoclasts by observation under a microscope, and their IC50 values are given in the following table 1.

[2] = tested on: osteoclast-specific marker genes (calcitonin receptor, cathepsin K, αv-integrin, β3-integrin, ATP6v0d2, DC-STAMP); assay: RT-PCR of osteoclast-specific marker genes; conditions: R+K11: 50 ng/ml RANKL following pretreatment with 10 μM K11 for 30 minutes, compared to RANKL; FIG. 3A
Method: Total RNA isolation was conducted using Easy-blue (Intron Biochemistry, Inc.). cDNA was synthesized from […] of the total RNA using an oligodT primer and 10 mM dNTP, 1 unit of an RNase inhibitor and 4 units of Scrip reverse transcriptase (Fermentas, Life science) at 42° C. for 60 min, followed by termination by heating at 70° C. for 10 min.
(§1) In FIG. 3, Veh represents a control group treated with DMSO, RANKL represents a group treated with 50 ng/ml RANKL, K11 represents a group treated with 10 μM K11, R+K11 represents a group treated with 50 ng/ml RANKL following pretreatment with 10 μM K11 for 30 minutes, while * represents p<0.05 compared to Veh and ** represents *: p<0.05 compared to RANKL. N.D.=Not Detectable. FIG. 3A is graphs showing analyzed results of reverse transcription polymerase chain reaction (RT-PCR) performed for measurement of expression levels of osteoclast-specific marker genes (calcitonin receptor, cathepsin K, αv-integrin, β3-integrin, ATP6v0d2, DC-STAMP), FIG. 3B is a view of result of pits formed on dentine slices by bone absorption according to treatment with K11 compound and FIG. 3C is a graph showing analyzed results of the experiment results obtained in FIG. 3B. […]

[3] = tested on: BMM cells on dentine slices (bone resorption of osteoclasts); assay: Pit formation assay on dentine slices; conditions: 50 ng/ml RANKL, 30 ng/ml M-CSF and 10 μM K11, six days, compared to RANKL; FIGS. 3B and 3C
Method: BMM cells were cultured for six days on dentine slices in 50 ng/ml RANKL and 30 ng/ml M-CSF, or 50 ng/ml RANKL 30 ng/ml and 10 μM K11 compound. After the cells on surfaces of dentine slice were washed, pits were stained with toluidin blue (J. T. Baker, UK, 1 μg/ml). Pits formed on the dentine slices by bone absorption were observed under a microscope and were analyzed.
as §1

NFATc1 = assay: Western blot analysis of NFATc1 expression; conditions: 200 ng/ml RANKL following pretreatment with 10 μM K11 for 30 minutes; FIG. 4
Method: (§2) After BMM cells treated with reagent were incubated for a predetermined period of time, the BMM cell were lysed in a lysis buffer and centrifuged. Following normalization to BSA (bovine serum albumin) standards, protein concentrations were quantitatively analyzed using a protein assay kit (Bio-Rad). Twenty micrograms of the protein was denatured and separated by SDS-PAGE (poly acrylamide gel electrophoresis) and transferred for 1 hour and 45 minutes onto a PVDF membrane in 80 V. Subsequently, the membrane was blocked with PBST (Phosphate Buffered Saline Tween-20) containing 5% skim milk, followed by reaction with anti-NFATc1 (Nuclear factor of activated T-cells cytoplasmic 1, 1:200, Santa Cruz) antibody or anti-c-fos (1:1000, Cell Signaling) antibody as a primary antibody, respectively (1:200 ratio herein indicated means dilution of 200 times). After the membrane was washed five times with TBST and reacted with HRP (horseradish peroxidase)-conjugated secondary antibody, the protein was visualized using ECL Advance (Amersham Co.) and analyzed.
(§3) In FIGS. 4 and 5, veh represents a control group treated with DMSO, RANKL represents a group treated with 200 ng/ml RANKL, R+K11 represents a group treated with 200 ng/ml RANKL following pretreatment with 10 μM K11 for 30 minutes, while * represents p<0.05 compared to Veh and ** represents *: p<0.05 compared to RANKL.

c-fos = assay: Western blot analysis of c-fos expression; conditions: 200 ng/ml RANKL following pretreatment with 10 μM K11 for 30 minutes; FIG. 5
Method: as §2, §3

Row | Compound | IC50 [1] [µM] | other results
1 | COc1cc(C(=O)N(C(C)C)C(C)C)ccc1OCCCCCOc1nc2ccccc2s1 [Compound K11, 4-(5-(Benzo[d]thiazol-2-yloxy)pentyloxy)-N,N-diisopropyl-3-methoxybenzamide] | 1.56 | expression levels of osteoclast-specific marker genes [2]: significantly decreased; number of pits on dentine slices [3]: significant reduction; RANKL-induced increase in the expression level of NFATc1 (NFATc1): the effect of RANKL was reduced; RANKL-induced increase in the expression level of c-fos (c-fos): the effect of RANKL was reduced
2 | Clc1cccc(OCCCCCOc2nc3ccccc3s2)c1 [Compound K14, 2-(5-(3-chlorophenoxy)pentyloxy)benzo[d]thiazole] | 7.77 | 
3 | COc1ccccc1OCCCCCOc1nc2ccccc2s1 [Compound K17, 2-(5-(2-Methoxyphenoxy)pentyloxy)benzo[d]thiazole] | 23.4 | 
4 | Fc1ccccc1OCCCCCOc1nc2ccccc2s1 [Compound K18, 2-(5-(2-Fluorophenoxy)pentyloxy)benzo[d]thiazole] | 18.4 | 
5 | c1ccc(OCCCCOc2nc3ccccc3s2)cc1 [Compound K19, 2-(4-Phenoxybutoxy)benzo[d]thiazole] | 17.7 | 
6 | COc1cc(C(=O)N(C(C)C)C(C)C)ccc1OCCCCOc1nc2ccccc2s1 [Compound K22, 4-(4-(Benzo[d]thiazol-2-yloxy)butoxy)-N,N-diisopropyl-3-methoxy Benzamide] | 2.2 | 
